Read-outs that look alike come from different tables or passages of the source.

Data set [1] is described as follows: Metabolic stability in human liver microsomes. Format: in vitro ADME. Conditions: for half-life at 0.25 μM: human, in vitro half-life, 0.5 mg/mL HLM, 0.25 μM test compound, 2 mM NADPH, pH 7.4, 37° C., 0-30 minutes; for % Difference: [(deuterated species) − (nondeuterated species)](100)/(nondeuterated species), t1/2 in HLM vs boceprevir. How it is done:
Human liver microsomes (20 mg/mL) were obtained from Xenotech, LLC (Lenexa, Kans.). β-Nicotinamide adenine dinucleotide phosphate, reduced form (NADPH), magnesium chloride (MgCl2), and dimethyl sulfoxide (DMSO) were purchased from Sigma-Aldrich.
7.5 mM stock solutions of Compounds 103, 109, 130, 134, 154, 157 and 158, as well as boceprevir, were prepared in DMSO. The 7.5 mM stock solutions were diluted to 12.5 μM in acetonitrile (ACN). The 20 mg/mL human liver microsomes were diluted to 0.625 mg/mL in 0.1 M potassium phosphate buffer, pH 7.4, containing 3 mM MgCl2. The diluted microsomes (375 μL) were added to wells of a 96-well deep-well polypropylene plate in triplicate. 10 μL of the 12.5 μM test compound was added to the microsomes and the mixture was pre-warmed for 10 minutes. Reactions were initiated by addition of 125 μL of pre-warmed NADPH solution. The final reaction volume was 0.5 mL and contained 0.5 mg/mL human liver microsomes, 0.25 μM test compound, and 2 mM NADPH in 0.1 M potassium phosphate buffer, pH 7.4, and 3 mM MgCl2. The reaction mixtures were incubated at 37° C., and 50 μL aliquots were removed at 0, 5, 10, 20, and 30 minutes and added to shallow-well 96-well plates which contained 50 μL of ice-cold ACN with internal standard to stop the reactions. The plates were stored at 4° C. for 20 minutes after which 100 μl of water was added to the wells of the plate before centrifugation to pellet precipitated proteins. Supernatants were transferred to another 96-well plate and analyzed for amounts of parent remaining by LC-MS/MS using an Applied Bio-systems API 4000 mass spectrometer. 7-ethoxycoumarin (1 μM) was used as the positive control substrate.
The in vitro half-lives (t1/2s) for test compounds are calculated from the slopes of the linear regression of % parent remaining (ln) vs incubation time relationship using the following formula:
in vitro t1/2=0.693/k, where k=−[slope of linear regression of % parent remaining(ln) vs incubation time]
Data analysis is performed using Microsoft Excel Software.
The experiment was repeated four separate times.
Background: Liver microsomes are a subcellular fraction often used to study metabolism.

The subject of a further data set is hepatitis C virus (HCV). Conditions: treatment-naïve patients, boceprevir combined with peginterferon alpha-2b and ribavirin, cited from earlier work.
The conditions of data set [2]: patients with hepatitis C; adverse events infrequent (headache, fever, myalgia); cited from earlier work.

In general, half-life refers to the time in which the quantity being followed falls by half. Read a high half-life as slow decline. `CC(C)(C)NC(=O)NC(C(=O)N1CC2C(C1C(=O)NC(CC1CCC1)C(=O)C(N)=O)C2(C)C)C(C)(C)C` (stereo not drawn) [Boceprevir, N-(4-amino-1-cyclobutyl-3,4-dioxobutan-2-yl)-3-(2-(3-tert-butylureido)-3,3-dimethylbutanoyl)-6,6-dimethyl-3-azabicyclo[3.1.0]hexane-2-carboxamide] came in with a half-life at 0.25 μM in data set [1] (human liver microsomes) of 19 min. The “sustained viral response (SVR) rates” value with hepatitis C virus (HCV) (after 12 weeks) was 66-74%; in the data set with hepatitis C virus (HCV) (after 24 weeks) it was 55-56%. In data set [2], the tolerability entry is “well-tolerated”.
Take `[2H]C([2H])([2H])C1(C([2H])([2H])[2H])[C@@H]2[C@@H](C(=O)NC(CC3CCC3)C(=O)C(N)=O)N(C(=O)[C@@H](NC(=O)NC(C([2H])([2H])[2H])(C([2H])([2H])[2H])C([2H])([2H])[2H])C(C([2H])([2H])[2H])(C([2H])([2H])[2H])C([2H])([2H])[2H])C[C@@H]21` (stereo partly drawn) [Compound 103, (1R,2S,5S)—N-(4-Amino-1-(cyclobutyl)-3,4-dioxobutan-2-yl)-3-((S)-2-(3-tert-butyl-d9-ureido)-3,3-di(methyl-d3)-4,4,4-d3-butanoyl)-6,6-di(methyl-d3)-3-azabicyclo[3.1.0]hexane-2-carboxamide]: in data set [1], the “% Difference” value is listed as 32.0%. Moreover, the half-life at 0.25 μM in data set [1] (human liver microsomes) stood at 25 min.
For `[2H]C([2H])([2H])C(NC(=O)N[C@H](C(=O)N1C[C@H]2[C@@H]([C@H]1C(=O)NC(CC1CCC1)C(=O)C(N)=O)C2(C)C)C(C([2H])([2H])[2H])(C([2H])([2H])[2H])C([2H])([2H])[2H])(C([2H])([2H])[2H])C([2H])([2H])[2H]` (stereo partly drawn) [Compound 109, (1R,2S,5S)—N-(4-Amino-1-cyclobutyl-3,4-dioxobutan-2-yl)-6,6-dimethyl-3-((S)-4,4,4-(methyl-d3)-2-(3-(1,1,1,3,3,3-di(methyl-d3)-2-(methyl-d3)propan-2-yl)ureido)-3,3-di(methyl-d3)butanoyl)-3-azabicyclo[3.1.0]hexane-2-carboxamide] the same measures were 21.8% and 23.2 min.
For `[2H]C([2H])([2H])C1(C([2H])([2H])[2H])[C@@H]2[C@@H](C(=O)NC(C(=O)C(N)=O)C([2H])([2H])C3([2H])C([2H])([2H])C([2H])([2H])C3([2H])[2H])N(C(=O)[C@@H](NC(=O)NC(C)(C)C)C(C)(C)C)C[C@@H]21` (stereo partly drawn) [Compound 130, (1R,2S,5S)—N-(4-Amino-1-(cyclobutyl-d7)-1,1-d2-3,4-dioxobutan-2-yl)-3-((S)-2-(3-tert-butylureido)-3,3-dimethylbutanoyl)-6,6-di(methyl-d3)-3-azabicyclo[3.1.0]hexane-2-carboxamide] the same measures were 65.3% and 31.4 min.
Turning to `[2H]C([2H])([2H])C1(C([2H])([2H])[2H])[C@@H]2[C@@H](C(=O)NC(CC3CCC3)C(=O)C(N)=O)N(C(=O)[C@@H](NC(=O)NC(C)(C)C)C(C)(C)C)C[C@@H]21` (stereo partly drawn) [Compound 134, (1R,2S,5S)—N-(4-Amino-1-cyclobutyl-3,4-dioxobutan-2-yl)-3-((S)-2-(3-tert-butylureido)-3,3-dimethylbutanoyl)-6,6-di(methyl-d3)-3-azabicyclo[3.1.0]hexane-2-carboxamide], the “% Difference” value in data set [1] was 7.9%. The molecule further returned a half-life at 0.25 μM in data set [1] (microsomes) of 19.1 min.
Regarding `[2H]C([2H])(C(NC(=O)[C@@H]1[C@@H]2[C@H](CN1C(=O)[C@@H](NC(=O)NC(C)(C)C)C(C)(C)C)C2(C)C)C(=O)C(N)=O)C1([2H])C([2H])([2H])C([2H])([2H])C1([2H])[2H]` (stereo partly drawn) [Compound 154, (1R,2S,5S)—N-(4-Amino-1-(cyclobutyl-d7)-1,1-d2-3,4-dioxobutan-2-yl)-3-((S)-2-(3-tert-butylureido)-3,3-dimethylbutanoyl)-6,6-dimethyl-3-azabicyclo[3.1.0]hexane-2-carboxamide], the “% Difference” value in data set [1] was determined as 51.4%. The same molecule had a half-life at 0.25 μM in data set [1] (human liver microsomes) of 28.7 min.
With `[2H]C1([2H])C([2H])([2H])C([2H])(CC(NC(=O)[C@@H]2[C@@H]3[C@H](CN2C(=O)[C@@H](NC(=O)NC(C)(C)C)C(C)(C)C)C3(C)C)C(=O)C(N)=O)C1([2H])[2H]` (stereo partly drawn) [Compound 157, (1R,2S,5S)—N-(4-Amino-1-(cyclobutyl-d7)-3,4-dioxobutan-2-yl)-3-((S)-2-(3-tert-butylureido)-3,3-dimethylbutanoyl)-6,6-dimethyl-3-azabicyclo[3.1.0]hexane-2-carboxamide], the “% Difference” value in data set [1] is on record as 39.9%. Moreover, the half-life at 0.25 μM in data set [1] (human liver microsomes) turned out to be 26.6 min.
For the molecule `[2H]C([2H])([2H])C1(C([2H])([2H])[2H])[C@@H]2[C@@H](C(=O)NC(C(=O)C(N)=O)C([2H])([2H])C3([2H])C([2H])([2H])C([2H])([2H])C3([2H])[2H])N(C(=O)[C@@H](NC(=O)NC(C([2H])([2H])[2H])(C([2H])([2H])[2H])C([2H])([2H])[2H])C(C([2H])([2H])[2H])(C([2H])([2H])[2H])C([2H])([2H])[2H])C[C@@H]21` (stereo partly drawn) [Compound 158, (1R,2S,5S)—N-(4-Amino-1-(cyclobutyl-d7)-1,1-d2-3,4-dioxobutan-2-yl)-3-((S)-2-(3-(tert-butyl-d9)ureido)-3,3-di(methyl-d3)-4,4,4-d3-butanoyl)-6,6-di(methyl-d3)-3-azabicyclo[3.1.0]hexane-2-carboxamide], in data set [1], the “% Difference” value is 96.3%. In data set [1] (human liver microsomes), the half-life at 0.25 μM worked out at 37.2 min.
